Three substances from patent publication US20240398973A1, “ENGINEERED ANTIBODY COMPOUNDS AND CONJUGATES THEREOF” (Eli Lilly and Company, priority 2017, published 2024) can be followed below.

The test system of assay [1] is primary human polymorphonuclear neutrophil (PMN). Nature of the assay: PMN chemotaxis (transwell, modified Boyden chamber). Particulars: relative to 100 nM fMLF, raw migration values (Table 4b). Format: cell-based. The method, then: Chemotaxis is measured by observing primary human polymorphonuclear neutrophil (PMN) migration across transwell membranes (Corning #3415) towards antibody conjugates in a modified Boyden chamber assay. Approximately 2-4×10^5 cells from neutrophil-enriched preparations are seeded in upper transwell chambers on membranes with 3.0 um pores. The lower transwell chambers contain solutions of buffer alone and fMLF (N-formyl-Met-Leu-Phe peptide as positive control) and experimental antibody bioconjugates. […] Cell numbers are determined using standard curves. All data are transformed to percent relative to the maximal fMLF response for each individual experiment.

The next assay relates to human primary PMNs. Nature of the assay: PMN reactive oxygen species (ROS) production, luminol-amplified chemiluminescence. Format: cell-based. The settings on record: for PMN ROS production: relative to 3000 nM fMLF, AUC 5 minutes (Table 8b).
The test system of assay [2] is Mouse neutrophils purified from marrow. Nature of the assay: Mouse PMN ROS production. Particulars: relative to 10000 nM fMLF, AUC 5 minutes (Table 8c). Format: cell-based.
Experimental: Mouse neutrophils purified from marrow were exposed to formyl peptides or antibody conjugates and ROS production was measured using luminol amplified chemiluminescence essentially as described above.
Assay [3] concerns the target formyl peptide receptor 1 (FPR1) on primary human polymorphonuclear neutrophils (human) (UniProt P21462). Nature of the assay: cell-based or functional assay.
The target is the same in assay [4]. Nature of the assay: cell-based or functional assay. This is another data set of the same source.

pEC50: −log10 of the molar value. Where two headings read alike, the source gives them in different places. Where no end group is shown, it is not given here. The star is where a group is joined. hydrolyzed maleimide‑PEG linker = hydrolyzed maleimide-polyethylene glycol (PEG) linker, bound to the Lys side chain through an epsilon amide bond; For = O=C*

Experimental for human primary PMNs: Production of ROS by human primary PMNs is measured using luminol-amplified chemiluminescence. Following isolation, PMNs are suspended at 1×10^6 cells/ml in HBSS containing calcium and magnesium (Gibco #14025-092) supplemented with 0.25% human serum albumin (Gemini Bio producst #800-124) and 50 uM Luminol (SigmaAldrich #123072-2.5G). 100 μl of cell suspension (1×10^5 total cells) is then distributed into each well of a 96-well plate suitable for fluorescence measurement (Greiner #655098) and temperature equilibrated to 37° C. for 5 minutes. Following equilibration, 10× solution of antibody conjugate is applied to the wells, achieving a 1× final concentration.
Immediately after the addition of antibody conjugate, chemiluminescence signal is recorded in a luminometer maintained at 37° C. with 0.01 seconds dwell time per well, 20 seconds total time between sequential plate readings and 45 minutes total run time (PerkinElmer EnVision Multilabel Plate Reader).

Broadly, the pEC50 is −log10 of the EC50, conventionally taken in molar units. A higher pEC50 goes with a small EC50. Turning to “FRM-021: SEQ ID NO: 36; formyl-Met-Ile-Phe-Leu-Lys, lysine side chain epsilon amide to a hydrolyzed maleimide-PEG linker (For-MIFLK(hydrolyzed maleimide‑PEG linker))”, the “PMN Chemotaxis Towards Formyl Peptides” value worked out at 151.7% in assay [1] (1 nM); 142.2% in assay [1] (3 nM); 137.4% in assay [1] (10 nM); 52.9% in assay [1] (30 nM); 37.0% in assay [1] (100 nM); 35.6% in assay [1] (300 nM). Besides, in assay [1] (1000 nM), the “PMN Chemotaxis Towards Formyl Peptides” value came to 22.8%. Besides, the “PMN ROS production” value was found to be 8.4 percentage with human primary PMNs (10 nM); 34.4 percentage in the assay on human primary PMNs (30 nM); 69.2 percentage in the assay with human primary PMNs (100 nM); 84.4 percentage in the assay with human primary PMNs (300 nM); 91.2 percentage with human primary PMNs (1000 nM); 102.9 percentage with human primary PMNs (3000 nM). In addition, in the assay with human primary PMNs (10000 nM), the “PMN ROS production” value was 91.7 percentage. For the same substance, the pEC50 in the assay on human primary PMNs (Best-Fit values in Graphpad PRISM (Table 8b)) was 7.29. The “Mouse PMN ROS Production” value in assay [2] (10 nM) is 14.5 percentage; in assay [2] (30 nM) it was 17.3 percentage; in assay [2] (100 nM) it was 112.6 percentage; in assay [2] (300 nM), 150.3 percentage; in assay [2] (1000 nM), 180.2 percentage; in assay [2] (3000 nM), 194.4 percentage. The “Mouse PMN ROS Production” value in assay [2] (10000 nM) was determined as 186.9 percentage.
For the substance TMab-G1-fMLFK-HC-124C-378C (antibody), the EC50 of PMN ROS production in assay [3] was 164 nM.
Consider fMLF (N-formyl-Met-Leu-Phe peptide), for which the EC50 of PMN ROS production in assay [4] is 154 nM; in assay [3], 334 nM.
